Assay results reported in ChEMBL document CHEMBL1137678, “Comparative study of the trypanocidal activity of the methyl 1-nitrophenyl-1,2,3,4-9H-tetrahydro-beta-carboline-3-carboxylate derivatives and benznidazole using theoretical calculations and cyclic voltammetry” (Eur J Med Chem, 2009).

Tests used:
[1] = tested on: Trypanosoma cruzi; assay: Antitrypanosomal activity against epimastigotes of Trypanosoma cruzi Y after 96 hrs by Neubauer haemocytometer; assay type: functional, organism-based
[2] = Selectivity index, ratio of CC50 for mouse J774.G8 cells to IC50 for epimastigotes of Trypanosoma cruzi Y; assay type: functional
[3] = Selectivity index, ratio of CC50 for monkey LLC-MK2 cells to IC50 for epimastigotes of Trypanosoma cruzi Y; assay type: functional

| IC50 [1] [µM] | Compound | Selectivity Index [2] | Selectivity Index [3] |
| --- | --- | --- | --- |
| > 100 | COC(=O)[C@@H]1Cc2c([nH]c3ccccc23)[C@@H](c2ccc([N+](=O)[O-])cc2)N1 (relative stereo) | – | – |
| 22.2 | COC(=O)[C@@H]1Cc2c([nH]c3ccccc23)[C@@H](c2cccc([N+](=O)[O-])c2)N1 (relative stereo) | 35.7 | 25.6 |
| 42.7 | COC(=O)[C@@H]1Cc2c([nH]c3ccccc23)[C@H](c2ccc([N+](=O)[O-])cc2)N1 (relative stereo) | – | – |
| 93.5 | COC(=O)[C@@H]1Cc2c([nH]c3ccccc23)[C@H](c2cccc([N+](=O)[O-])c2)N1 (relative stereo) | – | – |
